Measurements published in ChEMBL document CHEMBL4265899, “Trisubstituted thiazoles as potent and selective inhibitors of Plasmodium falciparum protein kinase G (PfPKG)” (Bioorg Med Chem Lett, 2018).
Converted amounts (≈) assume the structure as drawn.

Legend:
[1] = target: T1, Inhibitor of nuclear factor kappa-B kinase subunit beta (Homo sapiens) (UniProt O14920); conditions: at 100 nM
T1 sequence (whole entry): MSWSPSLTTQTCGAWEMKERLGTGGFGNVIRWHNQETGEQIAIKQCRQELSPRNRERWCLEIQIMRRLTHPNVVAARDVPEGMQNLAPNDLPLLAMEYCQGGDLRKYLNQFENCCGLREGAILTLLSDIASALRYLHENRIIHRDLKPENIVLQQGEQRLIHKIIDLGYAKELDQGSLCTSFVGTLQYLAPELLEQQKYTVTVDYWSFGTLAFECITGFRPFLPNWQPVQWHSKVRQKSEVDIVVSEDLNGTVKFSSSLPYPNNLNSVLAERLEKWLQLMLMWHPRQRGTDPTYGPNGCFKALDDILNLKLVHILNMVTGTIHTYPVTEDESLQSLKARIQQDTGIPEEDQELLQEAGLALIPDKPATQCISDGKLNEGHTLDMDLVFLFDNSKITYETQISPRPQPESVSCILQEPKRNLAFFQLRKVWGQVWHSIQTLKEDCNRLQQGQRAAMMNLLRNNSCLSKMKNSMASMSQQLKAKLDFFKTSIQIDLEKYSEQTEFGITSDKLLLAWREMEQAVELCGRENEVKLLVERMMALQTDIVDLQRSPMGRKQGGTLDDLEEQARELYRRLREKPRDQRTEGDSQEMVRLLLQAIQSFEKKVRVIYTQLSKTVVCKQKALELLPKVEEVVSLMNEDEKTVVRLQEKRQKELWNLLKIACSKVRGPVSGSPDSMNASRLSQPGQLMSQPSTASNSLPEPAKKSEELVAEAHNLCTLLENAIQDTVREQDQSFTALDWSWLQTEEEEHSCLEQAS
Description: Inhibition of human IKKb at 100 nM

[2] = Lipophilicity, log D of the compound at pH 7.4; conditions: buffer
[3] = target: Mitogen-activated protein kinase kinase kinase 1 (Homo sapiens) (UniProt Q13233); experiment: Inhibition of human MEKK1 at 100 nM
[4] = target: Mitogen-activated protein kinase 8 (Homo sapiens) (UniProt P45983); experiment: Inhibition of human JNK1 at 100 nM
[5] = target: Vascular endothelial growth factor receptor 2 (Homo sapiens) (UniProt P35968); experiment: Inhibition of human VEGFR at 100 nM
[6] = target: Mitogen-activated protein kinase kinase kinase 7 (Homo sapiens) (UniProt O43318); experiment: Inhibition of human TAK1 at 100 nM
[7] = target: Eukaryotic elongation factor 2 kinase (Homo sapiens) (UniProt O00418); experiment: Inhibition of human EF2K at 100 nM
[8] = target: RAC-beta serine/threonine-protein kinase (Homo sapiens) (UniProt P31751); experiment: Inhibition of human PKBbeta at 100 nM
RAC-beta serine/threonine-protein kinase (Homo sapiens), sequence (P31751 whole entry): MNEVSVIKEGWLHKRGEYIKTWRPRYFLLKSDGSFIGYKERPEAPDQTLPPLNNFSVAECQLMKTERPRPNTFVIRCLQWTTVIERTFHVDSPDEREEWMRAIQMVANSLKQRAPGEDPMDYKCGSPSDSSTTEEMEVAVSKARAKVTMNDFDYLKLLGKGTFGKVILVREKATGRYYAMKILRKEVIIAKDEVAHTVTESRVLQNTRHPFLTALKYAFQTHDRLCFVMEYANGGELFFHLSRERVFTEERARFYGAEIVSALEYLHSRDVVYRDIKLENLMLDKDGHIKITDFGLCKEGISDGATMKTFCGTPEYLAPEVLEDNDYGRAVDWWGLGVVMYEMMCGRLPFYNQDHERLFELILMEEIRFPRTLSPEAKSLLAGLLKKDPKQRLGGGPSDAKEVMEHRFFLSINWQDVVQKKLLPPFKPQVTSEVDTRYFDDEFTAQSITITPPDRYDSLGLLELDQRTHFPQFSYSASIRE

[9] = target: Serine/threonine-protein kinase N2 (Homo sapiens) (UniProt Q16513); experiment: Inhibition of human PRK2 at 100 nM
[10] = target: Mitogen-activated protein kinase 9 (Homo sapiens) (UniProt P45984); experiment: Inhibition of human JNK2 at 100 nM
[11] = target: MAP kinase-interacting serine/threonine-protein kinase 1 (Homo sapiens) (UniProt Q9BUB5); experiment: Inhibition of human MNK1 at 100 nM
[12] = system: Plasmodium falciparum; experiment: Antimalarial activity against Plasmodium falciparum after 48 hrs by microbeta scintillation counting-based [3H]-hypoxanthine incorporation assay; format: functional, organism-based
[13] = target: Insulin receptor-related protein (Homo sapiens) (UniProt P14616); experiment: Inhibition of human IRR at 100 nM
Insulin receptor-related protein (Homo sapiens), sequence (P14616 27-742 limits assumed): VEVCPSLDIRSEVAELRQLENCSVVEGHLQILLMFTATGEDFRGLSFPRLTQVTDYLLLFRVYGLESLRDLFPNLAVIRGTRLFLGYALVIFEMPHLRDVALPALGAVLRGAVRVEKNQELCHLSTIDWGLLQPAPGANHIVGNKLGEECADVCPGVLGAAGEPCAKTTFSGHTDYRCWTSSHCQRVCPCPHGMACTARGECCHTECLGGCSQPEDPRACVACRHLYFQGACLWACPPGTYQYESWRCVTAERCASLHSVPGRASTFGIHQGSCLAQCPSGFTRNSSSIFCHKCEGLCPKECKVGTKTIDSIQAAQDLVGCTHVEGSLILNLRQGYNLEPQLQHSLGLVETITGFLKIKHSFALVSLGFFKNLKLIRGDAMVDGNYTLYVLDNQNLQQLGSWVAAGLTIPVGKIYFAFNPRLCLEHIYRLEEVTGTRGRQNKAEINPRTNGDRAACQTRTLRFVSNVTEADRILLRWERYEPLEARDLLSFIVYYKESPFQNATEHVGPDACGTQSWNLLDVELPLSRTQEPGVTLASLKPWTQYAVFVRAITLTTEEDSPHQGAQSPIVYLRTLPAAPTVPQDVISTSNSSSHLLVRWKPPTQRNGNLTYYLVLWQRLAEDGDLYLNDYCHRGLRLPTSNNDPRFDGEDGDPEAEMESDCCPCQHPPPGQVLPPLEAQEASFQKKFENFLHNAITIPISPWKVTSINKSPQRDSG
Insulin receptor-related protein (Homo sapiens), sequence (P14616 747-1297 limits assumed): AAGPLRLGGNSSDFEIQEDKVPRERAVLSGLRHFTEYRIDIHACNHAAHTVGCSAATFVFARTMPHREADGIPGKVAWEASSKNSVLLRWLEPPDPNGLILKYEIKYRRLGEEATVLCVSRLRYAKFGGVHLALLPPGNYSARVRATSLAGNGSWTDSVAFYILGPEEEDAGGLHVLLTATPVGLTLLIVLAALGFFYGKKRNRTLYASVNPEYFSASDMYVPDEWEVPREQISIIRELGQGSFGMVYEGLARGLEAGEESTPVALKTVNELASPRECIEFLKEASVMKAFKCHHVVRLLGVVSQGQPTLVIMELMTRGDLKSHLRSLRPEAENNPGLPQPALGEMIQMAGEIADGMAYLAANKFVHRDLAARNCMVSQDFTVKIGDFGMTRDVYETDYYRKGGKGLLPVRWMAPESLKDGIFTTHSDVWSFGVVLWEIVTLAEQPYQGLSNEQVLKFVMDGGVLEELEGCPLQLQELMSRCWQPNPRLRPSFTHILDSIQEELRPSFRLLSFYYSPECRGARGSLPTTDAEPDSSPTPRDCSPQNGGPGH

[14] = target: Casein kinase I isoform alpha (Homo sapiens) (UniProt P48729); experiment: Inhibition of human CK1 at 100 nM
[15] = target: Insulin receptor (Homo sapiens) (UniProt P06213); experiment: Inhibition of human IR at 100 nM
Insulin receptor (Homo sapiens), sequence (P06213 28-758 limits assumed): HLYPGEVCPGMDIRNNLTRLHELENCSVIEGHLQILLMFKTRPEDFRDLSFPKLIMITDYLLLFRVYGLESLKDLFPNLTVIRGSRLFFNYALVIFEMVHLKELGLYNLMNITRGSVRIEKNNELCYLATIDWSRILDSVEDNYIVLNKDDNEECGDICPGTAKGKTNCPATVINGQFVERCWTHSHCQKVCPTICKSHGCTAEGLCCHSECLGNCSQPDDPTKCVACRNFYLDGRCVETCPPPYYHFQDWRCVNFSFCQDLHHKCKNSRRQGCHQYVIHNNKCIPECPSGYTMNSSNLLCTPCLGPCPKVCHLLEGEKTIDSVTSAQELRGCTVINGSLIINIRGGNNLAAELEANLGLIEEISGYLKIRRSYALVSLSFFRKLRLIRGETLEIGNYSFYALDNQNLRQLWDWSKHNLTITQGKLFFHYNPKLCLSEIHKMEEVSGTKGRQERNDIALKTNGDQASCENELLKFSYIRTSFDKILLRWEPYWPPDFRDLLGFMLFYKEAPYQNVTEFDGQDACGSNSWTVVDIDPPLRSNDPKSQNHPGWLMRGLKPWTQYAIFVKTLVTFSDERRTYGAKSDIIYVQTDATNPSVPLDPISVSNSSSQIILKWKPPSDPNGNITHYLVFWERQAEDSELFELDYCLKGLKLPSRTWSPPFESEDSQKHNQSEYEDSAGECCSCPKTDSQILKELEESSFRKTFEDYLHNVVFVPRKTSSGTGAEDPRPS
Insulin receptor (Homo sapiens), sequence (P06213 763-1382 limits assumed): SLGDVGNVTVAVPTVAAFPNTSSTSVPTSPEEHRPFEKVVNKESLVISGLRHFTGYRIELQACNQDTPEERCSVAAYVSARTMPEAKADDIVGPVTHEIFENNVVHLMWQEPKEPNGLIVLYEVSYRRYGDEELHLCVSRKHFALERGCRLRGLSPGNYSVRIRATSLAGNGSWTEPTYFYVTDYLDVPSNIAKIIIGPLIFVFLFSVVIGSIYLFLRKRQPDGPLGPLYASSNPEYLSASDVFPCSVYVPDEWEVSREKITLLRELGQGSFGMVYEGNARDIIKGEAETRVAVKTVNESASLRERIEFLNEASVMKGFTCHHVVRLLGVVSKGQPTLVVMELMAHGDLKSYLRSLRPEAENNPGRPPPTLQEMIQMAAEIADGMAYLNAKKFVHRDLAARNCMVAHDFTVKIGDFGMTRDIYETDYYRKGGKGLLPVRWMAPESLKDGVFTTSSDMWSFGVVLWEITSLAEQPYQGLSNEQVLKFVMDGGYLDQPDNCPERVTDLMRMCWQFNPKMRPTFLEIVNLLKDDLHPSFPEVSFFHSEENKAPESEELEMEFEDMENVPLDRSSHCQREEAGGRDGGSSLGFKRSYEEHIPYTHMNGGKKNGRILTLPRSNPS

[16] = target: Mitogen-activated protein kinase kinase kinase 9 (Homo sapiens) (UniProt P80192); experiment: Inhibition of human MLK1 at 100 nM
[17] = target: Protein kinase C zeta type (Homo sapiens) (UniProt Q05513); experiment: Inhibition of human PKCzeta at 100 nM
[18] = Metabolic stability in mouse liver microsomes assessed as compound remaining after 40 mins; format: ADME, microsome; conditions: read-out: Stability
[19] = target: Glycogen synthase kinase-3 beta (Homo sapiens) (UniProt P49841); experiment: Inhibition of human GSK3beta at 100 nM
Glycogen synthase kinase-3 beta (Homo sapiens), sequence (P49841 whole entry, looked up): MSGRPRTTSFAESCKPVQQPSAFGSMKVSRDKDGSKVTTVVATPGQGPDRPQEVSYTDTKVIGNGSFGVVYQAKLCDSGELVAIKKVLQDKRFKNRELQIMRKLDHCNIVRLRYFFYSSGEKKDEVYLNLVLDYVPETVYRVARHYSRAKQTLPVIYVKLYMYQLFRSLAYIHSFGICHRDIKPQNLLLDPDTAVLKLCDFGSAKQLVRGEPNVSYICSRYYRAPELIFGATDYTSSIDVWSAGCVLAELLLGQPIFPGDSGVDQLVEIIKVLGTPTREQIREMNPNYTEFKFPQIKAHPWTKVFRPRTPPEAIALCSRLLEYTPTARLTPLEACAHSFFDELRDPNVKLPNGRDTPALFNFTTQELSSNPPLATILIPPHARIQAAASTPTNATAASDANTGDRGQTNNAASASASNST

[20] = target: Phosphorylase kinase (Homo sapiens) (UniProt P15735+P46020+P46019+Q93100+Q16816); experiment: Inhibition of human PHK at 100 nM; format: protein-complex assay
[21] = target: T2, Inhibitor of nuclear factor kappa-B kinase subunit epsilon (Homo sapiens) (UniProt Q14164); conditions: at 100 nM
T2 sequence (whole entry): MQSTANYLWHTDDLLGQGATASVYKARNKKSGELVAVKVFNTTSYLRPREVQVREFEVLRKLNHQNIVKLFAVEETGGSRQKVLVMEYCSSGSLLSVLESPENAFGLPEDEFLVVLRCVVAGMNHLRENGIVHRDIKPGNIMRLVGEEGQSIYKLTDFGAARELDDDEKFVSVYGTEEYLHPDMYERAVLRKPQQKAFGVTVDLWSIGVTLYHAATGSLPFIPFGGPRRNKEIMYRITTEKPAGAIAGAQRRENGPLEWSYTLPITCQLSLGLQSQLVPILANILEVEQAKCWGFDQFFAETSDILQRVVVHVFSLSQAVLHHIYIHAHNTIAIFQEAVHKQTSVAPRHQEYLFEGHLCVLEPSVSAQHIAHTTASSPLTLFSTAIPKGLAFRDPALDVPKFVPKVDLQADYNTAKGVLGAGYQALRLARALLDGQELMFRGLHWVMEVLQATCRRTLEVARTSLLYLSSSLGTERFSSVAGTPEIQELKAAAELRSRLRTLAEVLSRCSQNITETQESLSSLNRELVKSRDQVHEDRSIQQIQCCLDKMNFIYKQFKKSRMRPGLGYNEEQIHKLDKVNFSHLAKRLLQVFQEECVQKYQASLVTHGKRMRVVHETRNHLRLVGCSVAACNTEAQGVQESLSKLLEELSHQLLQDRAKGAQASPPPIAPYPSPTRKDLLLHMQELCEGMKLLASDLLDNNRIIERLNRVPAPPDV
Description: Inhibition of human IKKepsilon at 100 nM

[22] = target: Calcium/calmodulin-dependent protein kinase type 1 (Homo sapiens) (UniProt Q14012); experiment: Inhibition of human CAMK1 at 100 nM
Calcium/calmodulin-dependent protein kinase type 1 (Homo sapiens), sequence (Q14012 whole entry, looked up): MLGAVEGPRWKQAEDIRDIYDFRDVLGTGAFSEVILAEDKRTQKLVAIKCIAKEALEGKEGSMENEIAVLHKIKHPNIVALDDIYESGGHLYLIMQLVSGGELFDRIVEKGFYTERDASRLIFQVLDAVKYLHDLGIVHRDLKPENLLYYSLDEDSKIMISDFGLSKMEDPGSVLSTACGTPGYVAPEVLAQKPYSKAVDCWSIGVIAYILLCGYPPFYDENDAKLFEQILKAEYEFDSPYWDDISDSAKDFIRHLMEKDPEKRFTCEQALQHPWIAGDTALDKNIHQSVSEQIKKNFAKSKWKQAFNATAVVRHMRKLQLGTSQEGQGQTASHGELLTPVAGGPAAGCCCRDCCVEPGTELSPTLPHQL

[23] = target: Ribosomal protein S6 kinase alpha-5 (Homo sapiens) (UniProt O75582); experiment: Inhibition of human MSK1 at 100 nM
[24] = target: Mitogen-activated protein kinase kinase kinase 11 (Homo sapiens) (UniProt Q16584); experiment: Inhibition of human MLK3 at 100 nM
Mitogen-activated protein kinase kinase kinase 11 (Homo sapiens), sequence (Q16584 whole entry, looked up): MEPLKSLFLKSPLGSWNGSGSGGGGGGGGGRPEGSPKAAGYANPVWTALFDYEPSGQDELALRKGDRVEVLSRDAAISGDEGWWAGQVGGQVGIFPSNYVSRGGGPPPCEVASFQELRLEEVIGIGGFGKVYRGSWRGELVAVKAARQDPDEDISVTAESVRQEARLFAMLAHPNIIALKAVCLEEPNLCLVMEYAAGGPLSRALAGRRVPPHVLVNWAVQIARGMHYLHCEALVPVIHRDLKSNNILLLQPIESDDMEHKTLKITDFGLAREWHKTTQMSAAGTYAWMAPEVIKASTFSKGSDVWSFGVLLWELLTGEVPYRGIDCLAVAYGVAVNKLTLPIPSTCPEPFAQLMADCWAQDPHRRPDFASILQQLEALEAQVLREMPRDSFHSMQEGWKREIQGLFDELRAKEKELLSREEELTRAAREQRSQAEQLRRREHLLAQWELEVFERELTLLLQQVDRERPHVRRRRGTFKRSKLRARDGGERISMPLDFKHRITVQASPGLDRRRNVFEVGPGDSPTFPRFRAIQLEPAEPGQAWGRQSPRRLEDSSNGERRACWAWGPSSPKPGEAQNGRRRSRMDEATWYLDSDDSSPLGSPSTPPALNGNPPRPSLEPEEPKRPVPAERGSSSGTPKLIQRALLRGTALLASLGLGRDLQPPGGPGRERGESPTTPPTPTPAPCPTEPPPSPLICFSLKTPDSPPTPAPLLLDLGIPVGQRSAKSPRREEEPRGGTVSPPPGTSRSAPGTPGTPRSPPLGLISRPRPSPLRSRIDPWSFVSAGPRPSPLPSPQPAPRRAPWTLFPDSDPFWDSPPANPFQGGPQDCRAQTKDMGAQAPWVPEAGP

[25] = target: Tyrosine-protein kinase SYK (Homo sapiens) (UniProt P43405); experiment: Inhibition of human SYK at 100 nM
[26] = target: Calcium/calmodulin-dependent protein kinase kinase 2 (Homo sapiens) (UniProt Q96RR4); experiment: Inhibition of human CAMKKb at 100 nM
[27] = Kinetic solubility of the compound

Compound	inhibition [1]	logD [2]	inhibition [3]	inhibition [4]	inhibition [5]	inhibition [6]	inhibition [7]	inhibition [8]	inhibition [9]	inhibition [10]	inhibition [11]	EC50 [12]	inhibition [13]	inhibition [14]	inhibition [15]	inhibition [16]	inhibition [17]	remaining at 40 min [18]	inhibition [19]	inhibition [20]	further results
CN1CCC(c2nc(-c3ccc(F)c(NS(C)(=O)=O)c3)c(-c3ccnc(NCC4CC4)n3)s2)CC1	< 70%	1.9	< 70%	< 70%	< 70%	< 70%	< 70%	< 70%	< 70%	< 70%	< 70%	113 nM	< 70%	< 70%	< 70%	< 70%	< 70%	89%	< 70%	< 70%	inhibition [21]: < 70%; inhibition [22]: < 70%; inhibition [23]: < 70%; inhibition [24]: < 70%; inhibition [25]: < 70%; inhibition [26]: < 70%; solubility kinetic [27]: 190 µM (≈ 98.2 µg/mL)
CN1CCC(c2nc(-c3cccc(S(C)(=O)=O)c3)c(-c3ccnc(Nc4ccc(N5CCNCC5)cc4)n3)s2)CC1	< 70%	0.3	< 70%	< 70%	< 70%	< 70%	< 70%	< 70%	< 70%	< 70%	< 70%	105 nM	< 70%	< 70%	< 70%	< 70%	< 70%	89%	< 70%	< 70%	inhibition [21]: < 70%; inhibition [22]: < 70%; inhibition [23]: < 70%; inhibition [24]: < 70%; inhibition [25]: < 70%; inhibition [26]: < 70%; solubility kinetic [27]: 208 µM (≈ 123 µg/mL)
